Measured values published in US4539208A, “Combination of thienamycin-type antibiotics with dipeptidase inhibitors” (Merck & Co., Inc., priority 1981, dated 1985).

Legend:
Staphalococcus aureus = experiment: Systemic efficacy of thienamycin with co-administered inhibitor, Staphylococcus aureus infection in mouse; assay type: in vivo
[1] = Urinary recovery of thienamycin co-administered with dipeptidase inhibitor in the mouse; assay type: in vivo, mouse (Charles River CD, female); details: urine, iv, Table II, control, thienamycin 10 mg/kg alone
Protocol: In addition to this in vitro screen procedure, an in vivo screen was followed to measure the test compound's ability to inhibit metabolism as reflected by increase in urinary recovery of thienamycin from the mouse. The procedure involves co-administration of the test compound by the intravenous or subcutaneous route at a dose-rate of 10-100 mg/kg, with 10 mg/kg thienamycin. Thienamycin recovery in the urine over a 4 hour period is then compared with its recovery in a control group to which test compound was not co-administered.
Urinary recovery of thienamycin was measured in all cases with the use of a cylinder or disc diffusion assay, conducted in a manner described in U.S. Pat. No. 3,950,357. This bioassay, with Staphylococcus aureus ATCC 6538 as the test organism, has a useful response range from 0.04 μg/ml to 3.0 μg/ml.
An in vivo assay on the mouse was conducted as follows: 20 g Charles River CD, female mice were injected subcutaneously with the chosen dose of the chemical inhibitor. About two minutes later, the dose of thienamycin was given intravenously. A control of thienamycin above was also conducted. The level of thienamycin in the urine as a % of dose was measured using a bioassay technique. The two test compound numbers are those from Table I. Compound 7 is Z-2-isovaleramido-2-butenoicacid; compound 10 is Z-2-cyclopropylcarboxamido-2-butenoic acid. […]

in vivo = experiment: in vivo; design: species or system dog (male beagle); details: dog, iv, 5 mg/kg
Protocol: A male beagle was used for a study of the effect of dipeptidase inhibitors on the urinary recovery of N-formimidoyl thienamycin. In a control study, the dog was given 5 mg/kg IV of the N-formimidoyl thienamycin without inhibitor. A second experiment used the same amount of N-formimidoylthienamycin, but also administered Z-2-isovaleramido-2-butenoic acid in 3 doses, each providing 20 mg/kg of the compound. The first dose was administered just after injection of the N-formimidoylthienamycin, the second at 40 min. and the third at 60 min. […]

SMILES | ED50 (Staphalococcus aureus; THM +100 mg/kg inhibitor (Z-2-isovaleramido-2-butenoic acid)) [mg/kg] | ED50 (Staphalococcus aureus; THM alone) [mg/kg] | dose excreted at 4 h [1] [%] | dose excreted at 3 h (in vivo) [%]
C[C@@H](O)[C@H]1C(=O)N2C(C(=O)O)=C(SCCN)C[C@H]12 [Thienamycin] | 0.06 | 0.2 | 25 to 30 | 
C[C@@H](O)[C@H]1C(=O)N2C(C(=O)O)=C(SCCN=CN)C[C@H]12 [N-formimidoyl thienamycin, N-Formimidoyl thienamycin] |  |  |  | 7.8
